Measured values taken from article PMC7071059, “Targeting Receptor Tyrosine Kinase VEGFR-2 in Hepatocellular Cancer: Rational Design, Synthesis and Biological Evaluation of 1,2-Disubstituted Benzimidazoles” (Molecules, 2020).

Tests used:
SK-MEL-5 = experiment: NCI 60 one dose (10 μM) anticancer assay; assay type: cell-based; details: Homo sapiens, 10 µM one dose, Melanoma, read-out: Growth Inhibition % SK-MEL-5
Procedure: (§1) Some of the synthesized compounds were selected by the NCI, Bethesda, MD, USA for evaluation of their anticancer activity. An in vitro one dose (10 μM) anticancer assay was conducted on a full NCI 60-cell line panel derived from 9 different cancer types. Table 2 presents the percent of growth inhibition of some cell lines. […] K-562 and MOLT-4 from leukemia, NCI-H522 from non-small cell lung cancer, HCT-116 from colon cancer, SK-MEL-5 and UACC-62 from melanoma, UO-31 from renal cancer, PC-3 from prostate cancer and HS 578T and T-47D from breast cancer are the most sensitive cell lines to the tested compounds. No growth inhibition was observed from the selected compounds against COLO205, HCC-2998, MALME-3M, SK-MEL-28, DU-145 and BT-549 cell lines. […] Against UO-31 from renal cancer and PC-3 from prostate cancer, it inhibited the growth of 44% and 58% of the cancer cells, respectively.

LOX IMVI = experiment: NCI 60 one dose (10 μM) anticancer assay; assay type: cell-based; details: Homo sapiens, 10 µM one dose, Melanoma, read-out: Growth Inhibition % LOX IMVI
Procedure: as §1

UACC-62 = experiment: NCI 60 one dose (10 μM) anticancer assay; assay type: cell-based; details: Homo sapiens, 10 µM one dose, Melanoma, read-out: Growth Inhibition % UACC-62
Procedure: as §1

NCI-H23 = experiment: NCI 60 one dose (10 μM) anticancer assay; assay type: cell-based; details: Homo sapiens, 10 µM one dose, Non-small cell lung Cancer, read-out: Growth Inhibition % NCI-H23
Procedure: as §1

RXF 393 = experiment: NCI 60 one dose (10 μM) anticancer assay; assay type: cell-based; details: Homo sapiens, 10 µM one dose, Renal Cancer, read-out: Growth Inhibition % RXF 393
Procedure: as §1

SNB-19 = experiment: NCI 60 one dose (10 μM) anticancer assay; assay type: cell-based; details: Homo sapiens, 10 µM one dose, CNS Cancer, read-out: Growth Inhibition % SNB-19
Procedure: as §1

SW-620 = experiment: NCI 60 one dose (10 μM) anticancer assay; assay type: cell-based; details: Homo sapiens, 10 µM one dose, Colon Cancer, read-out: Growth Inhibition % SW-620
Procedure: as §1

MDA-MB-435 = experiment: NCI 60 one dose (10 μM) anticancer assay; assay type: cell-based; details: Homo sapiens, 10 µM one dose, Melanoma, read-out: Growth Inhibition % MDA-MB-435
Procedure: as §1

HT29 = experiment: NCI 60 one dose (10 μM) anticancer assay; assay type: cell-based; details: Homo sapiens, HT-29; 10 µM one dose; Colon Cancer; read-out: Growth Inhibition % HT29
Procedure: as §1

OVCAR-8 = experiment: NCI 60 one dose (10 μM) anticancer assay; assay type: cell-based; details: Homo sapiens, 10 µM one dose, Ovarian Cancer, read-out: Growth Inhibition % OVCAR-8
Procedure: as §1

M14 = experiment: NCI 60 one dose (10 μM) anticancer assay; assay type: cell-based; details: Homo sapiens, 10 µM one dose, Melanoma, read-out: Growth Inhibition % M14
Procedure: as §1

SR = experiment: NCI 60 one dose (10 μM) anticancer assay; assay type: cell-based; details: Homo sapiens, 10 µM one dose, Leukemia, read-out: Growth Inhibition % SR
Procedure: as §1

TK-10 = experiment: NCI 60 one dose (10 μM) anticancer assay; assay type: cell-based; details: Homo sapiens, 10 µM one dose, Renal Cancer, read-out: Growth Inhibition % TK-10
Procedure: as §1

OVCAR-4 = experiment: NCI 60 one dose (10 μM) anticancer assay; assay type: cell-based; details: Homo sapiens, 10 µM one dose, Ovarian Cancer, read-out: Growth Inhibition % OVCAR-4
Procedure: as §1

786-0 = experiment: NCI 60 one dose (10 μM) anticancer assay; assay type: cell-based; details: Homo sapiens, 10 µM one dose, Renal Cancer, read-out: Growth Inhibition % 786-0
Procedure: as §1

SF-268 = experiment: NCI 60 one dose (10 μM) anticancer assay; assay type: cell-based; details: Homo sapiens, 10 µM one dose, CNS Cancer, read-out: Growth Inhibition % SF-268
Procedure: as §1

MDA-MB-468 = experiment: NCI 60 one dose (10 μM) anticancer assay; assay type: cell-based; details: Homo sapiens, 10 µM one dose, Breast Cancer, read-out: Growth Inhibition % MDA-MB-468
Procedure: as §1

HL-60(TB) = experiment: NCI 60 one dose (10 μM) anticancer assay; assay type: cell-based; details: Homo sapiens, 10 µM one dose, Leukemia, read-out: Growth Inhibition % HL-60(TB)
Procedure: as §1

CCRF-CEM = experiment: NCI 60 one dose (10 μM) anticancer assay; assay type: cell-based; details: Homo sapiens, 10 µM one dose, Leukemia, read-out: Growth Inhibition % CCRF-CEM
Procedure: as §1

HCT-15 = experiment: NCI 60 one dose (10 μM) anticancer assay; assay type: cell-based; details: Homo sapiens, 10 µM one dose, Colon Cancer, read-out: Growth Inhibition % HCT-15
Procedure: as §1

MDA-MB-231/ATTC = experiment: NCI 60 one dose (10 μM) anticancer assay; assay type: cell-based; details: Homo sapiens, 10 µM one dose, Breast Cancer, read-out: Growth Inhibition % MDA-MB-231/ATTC
Procedure: as §1

T-47D = experiment: NCI 60 one dose (10 μM) anticancer assay; assay type: cell-based; details: Homo sapiens, T47D; 10 µM one dose; Breast Cancer; read-out: Growth Inhibition % T-47D
Procedure: as §1

HCT-116 = experiment: NCI 60 one dose (10 μM) anticancer assay; assay type: cell-based; details: Homo sapiens, 10 µM one dose, Colon Cancer, read-out: Growth Inhibition % HCT-116
Procedure: as §1

NCI/ADR-RES = experiment: NCI 60 one dose (10 μM) anticancer assay; assay type: cell-based; details: Homo sapiens, 10 µM one dose, Ovarian Cancer, read-out: Growth Inhibition % NCI/ADR-RES
Procedure: as §1

UO-31 = experiment: NCI 60 one dose (10 μM) anticancer assay; assay type: cell-based; details: Homo sapiens, 10 µM one dose, Renal Cancer, read-out: Growth Inhibition % UO-31
Procedure: as §1

BT-549 = experiment: NCI 60 one dose (10 μM) anticancer assay; assay type: cell-based; details: Homo sapiens, 10 µM one dose, Breast Cancer, read-out: Growth Inhibition % BT-549
Procedure: as §1

U251 = experiment: NCI 60 one dose (10 μM) anticancer assay; assay type: cell-based; details: Homo sapiens, U-251; 10 µM one dose; CNS Cancer; read-out: Growth Inhibition % U251
Procedure: as §1

NCI-H322M = experiment: NCI 60 one dose (10 μM) anticancer assay; assay type: cell-based; details: Homo sapiens, 10 µM one dose, Non-small cell lung Cancer, read-out: Growth Inhibition % NCI-H322M
Procedure: as §1

HepG2 cell line = experiment: In vitro cytotoxic activity, Sulfo-Rhodamine-B (SRB) assay; assay type: cell-based, human; details: Homo sapiens, HepG2, 48 h, SRB assay, 48 h; mean of three independent experiments; read-out: IC50 (μM) on HepG2 Cell Line

Row | Structure (SMILES) | inhibition at 10 µM (SK-MEL-5) [%] | inhibition at 10 µM (LOX IMVI) [%] | inhibition at 10 µM (UACC-62) [%] | inhibition at 10 µM (NCI-H23) [%] | inhibition at 10 µM (RXF 393) [%] | inhibition at 10 µM (SNB-19) [%] | inhibition at 10 µM (SW-620) [%] | inhibition at 10 µM (MDA-MB-435) [%] | inhibition at 10 µM (HT29) [%] | inhibition at 10 µM (OVCAR-8) [%] | inhibition at 10 µM (M14) [%] | inhibition at 10 µM (SR) [%] | inhibition at 10 µM (TK-10) [%] | inhibition at 10 µM (OVCAR-4) [%] | inhibition at 10 µM (786-0) [%] | inhibition at 10 µM (SF-268) [%] | inhibition at 10 µM (MDA-MB-468) [%] | inhibition at 10 µM (HL-60(TB)) [%] | inhibition at 10 µM (CCRF-CEM) [%] | inhibition at 10 µM (HCT-15) [%] | other results
1 | COc1cc(/C=N/NC(=O)Cn2c(-c3ccc(C)o3)nc3ccccc32)ccc1OCc1ccccc1 [Compound 17f, (E)-N′-(4-(Benzyloxy)-3-methoxybenzylidene)-2-(2-(5-methylfuran-2-yl)-1H-benzo[d]imidazol-1-yl)acetohydrazide] | 23 | < 10 | 22 | < 10 | < 10 | 20 | < 10 | < 10 | < 10 | 19 | < 10 | 25 | < 10 | < 10 | < 10 | 24 | 23 | < 10 | 19 | 26 | inhibition at 10 µM (MDA-MB-231/ATTC): 21%; inhibition at 10 µM (T-47D): 31%; inhibition at 10 µM (HCT-116): 28%; inhibition at 10 µM (NCI/ADR-RES): < 10%; inhibition at 10 µM (UO-31): 38%; inhibition at 10 µM (BT-549): < 10%; inhibition at 10 µM (U251): < 10%; inhibition at 10 µM (NCI-H322M): < 10%; melting point: 139 to 141 °C; IC50 (HepG2 cell line): 42.5 µM
2 | COc1cc(/C=N/NC(=O)Cn2c(C(C)C)nc3ccccc32)ccc1OCc1ccccc1 [Compound 17e, (E)-N′-(4-(Benzyloxy)-3-methoxybenzylidene)-2-(2-isopropyl-1H-benzo[d]imidazol-1-yl)acetohydrazide] | 17 | < 10 | 22 | < 10 | < 10 | < 10 | < 10 | < 10 | < 10 | < 10 | < 10 | < 10 | < 10 | < 10 | < 10 | < 10 | < 10 | < 10 | < 10 | < 10 | inhibition at 10 µM (MDA-MB-231/ATTC): < 10%; inhibition at 10 µM (T-47D): 27%; inhibition at 10 µM (HCT-116): < 10%; inhibition at 10 µM (NCI/ADR-RES): < 10%; inhibition at 10 µM (UO-31): 20%; inhibition at 10 µM (BT-549): < 10%; inhibition at 10 µM (U251): < 10%; inhibition at 10 µM (NCI-H322M): < 10%; melting point: 180 to 182 °C; IC50 (HepG2 cell line): 24.1 µM
